From US20220281931A1, “CHEMICALLY INDUCIBLE POLYPEPTIDE POLYMERIZATION” (Dana-Farber Cancer Institute, Inc., priority 2019, published 2022)
Each block holds one molecule with its values, some of them ahead of it. Residues, ends and D or L forms follow the SMILES beside them. *: point of attachment. Cbz = O=C(OCc1ccccc1)*

Tests used:
SuDHL4Cas9 cells = test: Whole proteome quantification using tandem mass tag mass spectrometry; type: cell-based, human; conditions: SuDHL4 cells, 1 μM compound, 4 hours
Description: 10×10^6 SuDHL4Cas9 cells were treated with DMSO, 1 μM BI-3802 or 1 μM BI-3812 for 1 h or 4 h in triplicates and cells were harvested by centrifugation. Samples were processed, measured and analyzed as previously described (Donovan, K. A. et al. Thalidomide promotes degradation of SALL4, a transcription factor implicated in Duane Radial Ray syndrome. Ehfe 7, doi:10.7554/eLife.38430 (2018)). Data are available in the PRIDE repository (PXD016185).

[1] = target: T1, eGFPBCL6 stability reporter (Homo sapiens, UniProt P41182); test: Degradation of BCL6 reporter constructs in HEK293T cells (flow cytometry); type: cell-based; conditions: for effect on BI-3802-induced degradation of eGFPBCL6^FL: HEK293TCas9 cells, 0.5 μM MLN7243, 5 μM MLN4924 or 10 μM MG132 for 3 hours plus 1 μM BI-3802 for 1 hour
T1 construct: the full length BCL6 (BCL6^FL) was fused in-frame with eGFP; expressed in transfected cells; host or cells: HEK293TCas9 cells, lentiviral transduction (Artichoke vector)
Description: Lentivirus was packaged in HEK293T cells using TransIT (Mirus) and subsequently used for spin infection.
HEK293TCas9 cells expressing indicated constructs in “Artichoke” or “Cilantro2” stability reporter vectors (PGK or SFFV Target-eGFP-IRES-mCherry, puromycin resistance) were plated in 96 well plates and treated for indicated times. BCL6-eGFP and mCherry expression were quantified by flow cytometry (CytoFLEX, Beckman or LSR Fortessa flow cytometer BD Biosciences). All degradation assays were done in at least triplicates. Geometric means of eGFP and mCherry fluorescent signals for live and mCherry positive cells were exported using flow cytometry analysis software (FlowJo, BD). Ratios of eGFP to mCherry were normalized to the average of DMSO-treated controls.

[2] = target: T2, BCL6-eGFP fusion construct (Homo sapiens, UniProt P41182); test: Live cell imaging of BCL6-eGFP foci in HEK293T cells; type: cell-based; conditions: eGFPBCL6^1-250, 10 μM BI-3812 added 75 minutes after 1 μM BI-3802
T2 construct: expressed in transfected cells; host or cells: HEK293TCas9 cells, lentiviral transduction (Cilantro2 vector)
Description: 1×10^3 HEK293T cells per cm^2 were seeded in a μ-Slide 8 Well chamber (ibidi) and cultured for 18-24 h under standard growth conditions. Cell culture medium was exchanged to CO2 independent media (Gibco) and imaged with the DeltaVision Ultra High-Resolution Microscope (GE Healthcare, 100×lens, oil refraction index=1.520). The following acquisition parameters were used: Image size […], binning 1×1, GFP exposure time 0.08 sec. and the Neutral Density (% T) filter 32%. To capture foci within all cell volume, around 26μm per cell was imaged every 0.4-0.5 μm. Images were deconvolved (10 cycles, conservative conditions) and projected using maximal intensity by softWoRx® 7.0.0. Images for movies were taken every 10 minutes and combined to a movie by QuickTime.

BCL6^5-360 - SIAH1^SBD = target: T3, BCL6^5-360 - SIAH1^SBD (Homo sapiens, UniProt P41182); test: BCL6-SIAH1 TR-FRET; type: biochemical; conditions: in vitro, increasing compound concentration
T3 construct: 200 nM BodipyFL-labeled BCL6^5-360 variants; His6 (N); Spy (C); made in house; host or cells: Trichoplusia ni High Five insect cells, baculovirus
Description: After dispensing the assay mixture (15 μL volume), increasing concentrations of compounds were dispensed in a 384-well microplate (Corning, 4514) using a D300e Digital Dispenser (HP) normalized to 1% DMSO. After excitation of terbium fluorescence at 337 nm, emission at 490 nm (terbium) and 520 nm (BodipyFL) were recorded with a 70 us delay over 600 μs to reduce background fluorescence, and the reaction was followed over 60 cycles of each data point using a PHERAstar FS microplate reader (BMG Labtech). The TR-FRET signal of each data point was extracted by calculating the 520/490 nm ratio. The half-maximal effective concentration (EC50) values were estimated using dose-response analysis standard four parameter log-logistic curves, fitted to the experimental data using […] package. […] After dispensing the assay mixture, increasing concentration of BodipyFL-BCL6^5-360 was added to the SIAH1 mixture in a […] (7.5 μL each, total 15 μL assay volume). The 520/490 nm ratios were measured in as described above and plotted to calculate the KD^APP values using dose-response analysis standard four parameter log-logistic curves using […] package.

BCL6^5-129 = target: T4, BCL6^5-129 (Homo sapiens, UniProt P41182); test: BCL6-BCoR TR-FRET (compound binding assay); conditions: 0.1 μM FITCBCoR polypeptide, 0.1 μM BiotinBCL6^5-129
T4 construct: mixing 100 nM biotinylated BCL6^5-129, 100 nM N-terminal FITC-labeled BCoR peptide; made in house; host or cells: Trichoplusia ni High Five insect cells, baculovirus
Description: Competitive titration of BI-3802 or BI-3812 were carried out by mixing 100 nM biotinylated BCL6^5-129, 100 nM N-terminal FITC-labeled BCoR peptide (sequence: […]), and 2 nM terbium-coupled streptavidin in the same assay buffer. After dispensing the assay mixture (15 μL volume), increasing concentrations of compounds were dispensed in a 384-well microplate (Corning, 4514) using a D300e Digital Dispenser (HP) normalized to 1% DMSO. The 520/490 nm ratios were measured as described above and plotted to calculate the KD^APP values using dose-response analysis standard four parameter log-logistic curves using the dr4pl R package.

degradation of full-length BCL6 reporter (eGFPBCL6^FL) ([1]; HEK293T cells, 1 μM, 1 hour): did not alter stability of the reporter | reversal of BI-3802-induced foci [2]: fully reversible | affinity of compound to BCL6 (BCoR peptide competition) (BCL6^5-129): comparable affinity
SMILES: CNC(=O)COc1cc2cc(Nc3nc(N4CCC(C(=O)N(C)C)CC4)ncc3Cl)cc(OC)c2n(C)c1=O [BI-3812, 1-(5-chloro-4-((8-methoxy-1-methyl-3-(2-(methylamino)-2-oxoethoxy)-2-oxo-1,2-dihydroquinolin-6-yl)amino)pyrimidin-2-yl)-N,N-dimethylpiperidine-4-carboxamide]
change in polypeptide abundance (whole proteome) (SuDHL4Cas9 cells): did not alter the abundance of any polypeptide | block of BI-3802-induced BCL6 degradation ([1]; HEK293T cells expressing eGFPBCL6^1-275, simultaneous BI-3802 and excess BI-3812, 24 hours): efficiently blocked BI-3802-induced BCL6 degradation | effect on the BCL6-SIAH1 interaction (TR-FRET) (BCL6^5-360 - SIAH1^SBD): did not influence the BCL6-SIAH1 interaction

SMILES: CC(C)C[C@@H](C=O)NC(=O)[C@H](CC(C)C)NC(=O)[C@H](CC(C)C)NC(=O)OCc1ccccc1 [MG132] (Cbz-Leu-Leu-Leu-aldehyde)
effect on BI-3802-induced degradation of eGFPBCL6^FL [1]: attenuated

SMILES: NS(=O)(=O)OC[C@@H]1C[C@@H](n2ccc3c(N[C@H]4CCc5ccccc54)ncnc32)C[C@@H]1O [MLN4924]
effect on BI-3802-induced degradation of eGFPBCL6^FL [1]: not by inhibition of the neddylation pathway with MLN4924

effect on BI-3802-induced degradation of eGFPBCL6^FL [1]: attenuated
SMILES: NS(=O)(=O)OC[C@H]1C[C@@H](Nc2ccnc3cc(-c4cccc(SC(F)(F)F)c4)nn23)[C@H](O)[C@@H]1O [MLN7243]
